Test results reported in patent US20250332112A1, “IONIZABLE CATIONIC LIPIDS FOR LIPID NANOPARTICLES” (GENEVANT SCIENCES GMBH, priority 2022, published 2025).

Legend:
[1] = Particle characteristics of LNPs containing luciferase mRNA and novel ionizable lipids; type: physicochemical; conditions: luciferase mRNA LNP 1.6:54.6:32.8:10.9
Method in brief: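 LNPs made from PEG-lipid, ionizable lipid, cholesterol and phospholipid in ethanol, T-mixed with luciferase mRNA in 100 mM acetate pH 5. Products were dialysed, concentrated, and dialysed into 5 mM Tris, 10% sucrose, pH 8, then 0.2 μm filtered. mRNA was measured by RiboGreen, and size and polydispersity by dynamic light scattering on a Zetasizer.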

[2] = Parent ionizable lipid remaining in liver at 6 h after luciferase mRNA LNP (LC-MS); type: in vivo; conditions: 6 h after IV 0.5 mg/kg Luciferase mRNA LNP
[3] = tested on: luciferase activity in the liver; experiment: Luciferase activity in liver after intravenous luciferase mRNA LNP; type: in vivo; conditions: 0.5 mg/kg IV, 6 h post-IV administration, BALB/c mice (n = 4)
[4] = tested on: EGFP expression in the liver; experiment: EGFP expression in liver after intravenous EGFP mRNA LNP (ELISA); conditions: 0.5 mg/kg IV, 24 h post-IV administration, BALB/c mice (n = 4)
Experimental: LNP formulations encapsulating enhanced green fluorescent protein mRNA were injected intravenously at 0.5 mg/kg to female BALB/c mice (6-8 weeks old). On day of injection, the LNP stocks were filtered and diluted to the required dosing concentration with phosphate buffered saline. At 24 hours post-administration, animals were anaesthetized with a lethal dosage of ketamine/xylazine. Liver samples (left lateral lobe) were collected, weighed, and flash frozen in liquid nitrogen. Liver samples were stored in FastPrep® tubes at −80° C. until analyzed for EGFP expression.
Liver homogenates were prepared in cell extraction buffer, diluted, and analyzed for EGFP protein levels using ELISA, according to manufacturer's instructions (Abcam, GFP ELISA Kit).

[5] = Particle characteristics of LNPs containing EGFP mRNA and novel ionizable lipids; type: physicochemical; conditions: EGFP mRNA LNP 1.6:54.6:32.8:10.9
Experimental: The lipid solution contains 4 components: a PEG-conjugated lipid, an ionizable lipid, cholesterol, and a phospholipid (e.g., DSPC). Lipid stocks were prepared using the lipid identities and molar ratios as described, to achieve a total concentration of ˜7 mg/mL in 100% ethanol. […] Equal volumes of the lipid and nucleic acid solutions were blended at a flow rate of 400 mL/min through a T-connector, and diluted with ˜4 volumes of PBS, pH 7.4. Formulations were placed in Slide-A-Lyzer dialysis units (MWCO 10,000) and dialyzed overnight against 10 mM Tris, 500 mM NaCl, pH 8 buffer. Following dialysis, the formulations were concentrated to ˜0.6 mg/mL using VivaSpin concentrator units (MWCO 100,000) and dialyzed overnight against 5 mM Tris, 10% sucrose, pH 8 buffer. Formulations were filtered through a 0.2 μm syringe filter (PES membrane). Nucleic acid concentration was determined by the RiboGreen assay. Particle size and polydispersity were determined using a Malvern Nano Series Zetasizer.
LNP formulations containing novel ionizable lipids all produced stable particles with high encapsulation efficiency (Tables 20-23).

[6] = Parent ionizable lipid remaining in liver at 24 h after EGFP mRNA LNP (LC-MS); type: in vivo; conditions: 24 h after IV 0.5 mg/kg EGFP mRNA LNP, female BALB/c mice (n = 4)
Experimental: Liver tissues were treated with PBS and homogenized with a FastPrep machine, 3 cycles of 5 m/s×15 s. Homogenates from the PBS-treated control animals was pooled and used for standard curve preparation. Samples were extracted into a deep well plate with 250 μL of an internal suitability standard. Plates were centrifuged for 15 min at 4° C. and 2000 rpm. Analysis was performed using an Agilent 6520 QTOF coupled to an Agilent 1290 UHPLC, using reverse-phase LC separation. Quantitation of the ionizable lipid was by MS/MS against a calibration curve spiked into appropriately matched blank matrix. Calibration used a similar class of synthetic lipid as internal standard.
At 24 h post-dose, some treatment groups reported lower levels of novel ionizable lipid in mouse liver compared to the benchmark (Tables 28-31).

[7] = Table 18, female BALB/c mice (n = 4)

Row | Compound | Final Product % EE ([1]; Table 7) | Final Product PDI ([1]; Table 7) | Final Product Z-avg ([1]; Table 7) | Parent ionizable lipid remaining in liver, Average [2, 7] | Luc Activity ([3]; Table 14) | EGFP ([4]; Table 25) | Final Product % EE ([5]; Table 21) | Final Product PDI ([5]; Table 21) | Final Product Z-avg ([5]; Table 21) | Parent ionizable lipid remaining in liver, Average ([6]; Table 29) | further results
1 | CCCCCCCCCCC(CCCCCCCC(=O)OCCC(CCCCC)CCCCC)N(CCCCCCCCC(=O)OCCC(CCCCC)CCCCC)C(=O)CCCCN(C)C (centres unmarked) [Compound 65, 3-Pentyloctyl 9-(5-(dimethylamino)-N-(9-oxo-9-((3-pentyloctyl)oxy)nonyl)-pentanamido)-nonadecanoate] |  |  |  |  |  |  |  |  |  |  | Final Product % EE ([1]; Table 6): 98%; Final Product PDI ([1]; Table 6): 0.01; Final Product Z-avg ([1]; Table 6): 83 nm; Parent ionizable lipid remaining in liver, Average ([2]; Table 17, female mice (n = 4)): 27.84 nmol/g liver; Luc Activity ([3]; Table 13): 3.88E+07 pg/g liver
2 | CCCCCCCCCCC(CCCCCCCC(=O)OCC(CCCCCC)CCCCCCCC)N(CCCCCCCCC(=O)OCC(CCCCCC)CCCCCCCC)C(=O)CCCCN(C)C (centres unmarked) [Compound 72, 2-Hexyldecyl 9-(5-(dimethylamino)-N-(9-((2-hexyldecyl)oxy)-9-oxononyl)pentanamido)-nonadecanoate] |  |  |  |  |  |  |  |  |  |  | Final Product % EE ([1]; Table 6): 99%; Final Product PDI ([1]; Table 6): 0.00; Final Product Z-avg ([1]; Table 6): 79 nm; Parent ionizable lipid remaining in liver, Average ([2]; Table 17, female mice (n = 4)): 47.56 nmol/g liver; Luc Activity ([3]; Table 13): 2.26E+07 pg/g liver
3 | CCCCCCCCCCC(CCCCCCCC(=O)OCCC(CCCCC)CCCCC)N(CCCCCCCC(=O)OCCC(CCCCC)CCCCC)C(=O)CCCCN(C)C (centres unmarked) [Compound 73, 3-Pentyloctyl 9-(5-(dimethylamino)-N-(8-oxo-8-((3-pentyloctyl)oxy)octyl)-pentanamido)-nonadecanoate] | 99% | 0.00 | 82 nm | 31.41 nmol/g liver | 3.64E+07 pg/g liver |  |  |  |  |  | 
4 | CCCCCCCCCCC(CCCCCCCC(=O)OCC(CCCCCC)CCCCCCCC)N(CCCCCCCC(=O)OCC(CCCCCC)CCCCCCCC)C(=O)CCCCN(C)C (centres unmarked) [Compound 74, 2-Hexyldecyl 9-(5-(dimethylamino)-N-(8-((2-hexyldecyl)oxy)-8-oxooctyl)-pentanamido)-nonadecanoate] | 99% | 0.05 | 89 nm | 17.92 nmol/g liver | 6.77E+07 pg/g liver |  |  |  |  |  | 
5 | CCCCCCCCCCN(C(=O)CCCN(C)C)C(CCCCCCCCC)CCCCCCC(F)C(=O)OCCC(CCCCCC)CCCCCC (centres unmarked) [Compound 76, 3-Hexylnonyl 9-[N-decyl-4-(dimethylamino)butanamido]-2-fluorooctadecanoate] | 98% | 0.07 | 69 nm | 17.86 nmol/g liver | 2.09E+07 pg/g liver |  |  |  |  |  | 
6 | CCCCCCCCCCN(C(=O)CCCN(C)C)C(CCCCCCCCC)CCCCCCC(F)C(=O)OCC(CCCCCC)CCCCCCCC (centres unmarked) [Compound 77, 2-Hexyldecyl 9-(N-decyl-4-(dimethylamino)butanamido)-2-fluorooctadecanoate] | 99% | 0.09 | 63 nm | 30.63 nmol/g liver | 3.26E+07 pg/g liver |  |  |  |  |  | 
7 | CCCCCCCCCCC(CCCCCCC(F)(F)C(=O)OCCC(CCCCC)CCCCC)N(CCCCCCCC(=O)OCCC(CCCCC)CCCCC)C(=O)CCCN(C)C (centres unmarked) [Compound 87, 3-pentyloctyl 9-[4-(dimethylamino)-N-{8-oxo-8-[(3-pentyloctyl)oxy]octyl}butanamido]-2,2-difluorononadecanoate] | 98% | 0.05 | 78 nm | 3.23 nmol/g liver | 1.18E+06 pg/g liver |  |  |  |  |  | 
8 | CCCCCCCCCC(CCCCCCC(F)C(=O)OCCC(CCCCC)CCCCC)N(CCCCCCCC(=O)OCCC(CCCCC)CCCCC)C(=O)CCCN(C)C (centres unmarked) [Compound 88, 3-pentyloctyl 9-[4-(dimethylamino)-N-{8-oxo-8-[(3-pentyloctyl)oxy]octyl}butanamido]-2-fluorooctadecanoate] | 99% | 0.04 | 72 nm | 7.88 nmol/g liver | 1.64E+07 pg/g liver |  |  |  |  |  | 
9 | CCCCCCCCCCC(CCCCCCC(=O)OCCC(CCCCC)CCCCC)N(CCCCCCCCCC)C(=O)CCCCN1CCCC1 (centres unmarked) [Compound 89, 3-Pentyloctyl 8-(N-decyl-5-(pyrrolidin-1-yl)pentanamido)octadecanoate] |  |  |  |  |  |  |  |  |  |  | EGFP ([4]; Table 24): 2.01E+07 pg/g liver; Final Product % EE ([5]; Table 20): 99%; Final Product PDI ([5]; Table 20): 0.03; Final Product Z-avg ([5]; Table 20): 83 nm; Parent ionizable lipid remaining in liver, Average ([6]; Table 28): 4.32 nmol/g liver
10 | CCCCCCCCCCC(CCCCCCC(=O)OCCC(CCCCCC)CCCCCC)N(CCCCCCCCCC)C(=O)CCCCN1CCCC1 (centres unmarked) [Compound 90, 3-Hexylnonyl 8-(N-decyl-5-(pyrrolidin-1-yl)pentanamido)octadecanoate] |  |  |  |  |  |  |  |  |  |  | EGFP ([4]; Table 24): 2.12E+07 pg/g liver; Final Product % EE ([5]; Table 20): 99%; Final Product PDI ([5]; Table 20): 0.07; Final Product Z-avg ([5]; Table 20): 79 nm; Parent ionizable lipid remaining in liver, Average ([6]; Table 28): 13.37 nmol/g liver
11 | CCCCCCCCCCC(CCCCCCC(=O)OCCC(CCCCCCC)CCCCCCC)N(CCCCCCCCCC)C(=O)CCCCN1CCCC1 (centres unmarked) [Compound 91, 3-Heptyldecyl 8-(N-decyl-5-(pyrrolidin-1-yl)pentanamido)octadecanoate] |  |  |  |  |  |  |  |  |  |  | EGFP ([4]; Table 24): 3.15E+07 pg/g liver; Final Product % EE ([5]; Table 20): 99%; Final Product PDI ([5]; Table 20): 0.03; Final Product Z-avg ([5]; Table 20): 85 nm; Parent ionizable lipid remaining in liver, Average ([6]; Table 28): 18.58 nmol/g liver
12 | CCCCCCCCCCN(C(=O)CCCN(C)C)C(CCCCCCCCC)CCCCCCC(F)(F)C(=O)OC(CCCCCC)CCCCCC (centres unmarked) [Compound 92, Tridecan-7-yl 9-(N-decyl-4-(dimethylamino)butanamido)-2,2-difluorooctadecanoate] |  |  |  |  |  | 6.34E+05 pg/g liver | 99% | 0.09 | 71 nm | 8.83 nmol/g liver | 
13 | CCCCCCCCCCN(C(=O)CCCN(C)C)C(CCCCCCCCC)CCCCCCC(F)(F)C(=O)OC(CCCCCCC)CCCCCCC (centres unmarked) [Compound 93, Pentadecan-8-yl 9-(N-decyl-4-(dimethylamino)butanamido)-2,2-difluorooctadecanoate] |  |  |  |  |  | 1.77E+05 pg/g liver | 98% | 0.02 | 69 nm | 24.61 nmol/g liver | 
14 | CCCCCC/C=C\CCON(C(=O)CCCCN(C)C)C(CCCCCCCCCC)CCCCCCC(=O)OCCC(CCCCC)CCCCC (centres unmarked) [Compound 94, 3-Pentyloctyl (Z)-8-(N-(dec-3-en-1-yloxy)-5-(dimethylamino)pentanamido)octadecanoate] |  |  |  |  |  | 1.20E+06 pg/g liver | 98% | 0.06 | 83 nm | 6.57 nmol/g liver | 
15 | CCCCCCCCCCON(C(=O)CCCCN(C)C)C(CCCCCCCCCC)CCCCCCC(=O)OCCC(CCCCC)CCCCC (centres unmarked) [Compound 95, 3-Pentyloctyl 8-(N-(decyloxy)-5-(dimethylamino)pentanamido)octadecanoate] |  |  |  |  |  | 8.76E+05 pg/g liver | 96% | 0.08 | 80 nm | 9.44 nmol/g liver | 
16 | CCCCCCCCCCON(C(=O)CCCCN(C)C)C(CCCCCCCCCC)CCCCCCC(=O)OCCC(CCCCCC)CCCCCC (centres unmarked) [Compound 97, 3-Hexylnonyl 8-(N-(decyloxy)-5-(dimethylamino)pentanamido)octadecanoate] |  |  |  |  |  | 1.48E+06 pg/g liver | 99% | 0.07 | 85 nm | 19.31 nmol/g liver | 
